Experimental data taken from US20230374071A1, “COMPOSITIONS FOR INDUCING URINARY VOIDING AND DEFECATION” (Dignify Therapeutics, LLC, priority 2020, published 2023).
Values after ≈ are worked out from the molar mass of the structure shown. “Also recorded” adds a separate entry of the source. Non-standard residues stand in square brackets, D forms with d. Residues, ends and D or L forms follow the SMILES beside them. Nle = CCCC[C@H](N)C(=O)O; βAla = NCCC(=O)O

Columns and labels:
[1] = Aqueous solubility of lyophilized peptide analogs (observed dissolution in Dulbecco's phosphate buffered saline and water); format: physicochemical; details: observed dissolution in both Dulbecco's phosphate buffered saline and water; 5 mg/mL was the maximum tested
Procedure: Peptide analogs of NKA were purified to ≥95% purity. […] Compounds A, B, H, and J (SEQ ID NO: 1, 2, 8, and 10) were considered to be aqueous insoluble (<0.1 mg/mL). *Aqueous solubilities of the lyophilized peptide analogs were determined based on the observed dissolution in both Dulbecco's phosphate buffered saline and water. gc=Gly-(R-gamma-lactam)-Leu or (S)-2-((R)-3-amino)-2-oxopyrrolidin-1-yl)-4-methylpantanoyl.

[2] = target: T1, human NK2 receptor (hNK2R) (Homo sapiens, UniProt P21452); test: Intracellular calcium mobilization (Fluo-4 AM, FLIPR) in CHO cells expressing recombinant hNK2R; format: cell-based; details: for EC50: calcium mobilization, CHO-hNK2 cells, agonist potency, read-out: hNK2R pEC50 (converted); for selectivity for activation of hNK2Rs vs hNK1Rs: from ratios of EC50s
T1 construct: expressed in transfected cells; host or cells: CHO (CHO-hNK2)
T1 sequence (P21452 1-398): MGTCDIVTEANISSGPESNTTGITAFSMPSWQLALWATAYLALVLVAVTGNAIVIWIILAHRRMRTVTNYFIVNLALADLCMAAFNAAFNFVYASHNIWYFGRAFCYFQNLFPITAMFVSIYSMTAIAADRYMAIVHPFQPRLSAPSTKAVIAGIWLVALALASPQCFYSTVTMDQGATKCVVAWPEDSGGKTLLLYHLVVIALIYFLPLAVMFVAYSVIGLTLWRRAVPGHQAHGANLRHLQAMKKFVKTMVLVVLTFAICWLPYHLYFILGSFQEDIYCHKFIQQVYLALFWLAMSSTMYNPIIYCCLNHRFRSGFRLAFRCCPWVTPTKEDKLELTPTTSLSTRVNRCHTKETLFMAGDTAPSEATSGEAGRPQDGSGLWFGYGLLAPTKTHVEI
Procedure: (§1) Intracellular Calcium Mobilization: The agonist efficacy of compounds A-J at recombinant hNK2R or hNK1Rs expressed in CHO cells was assessed by measuring intracellular calcium mobilization using the calcium-sensitive dye Fluo-4 AM (MOLECULAR PROBES, EUGENE, OR, USA) and a Fluorometric Imaging Plate Reader (FLIPR, MOLECULAR DEVICES, CA, USA). CHO-hNK1 and CHO-hNK2 cells were seeded into black walled clear-bottom 384-well plates) at a density of 10,000 and 15,000 cells per well in 50 μL culture media, respectively, and grown overnight at 37° C. in a humidified CO2-incubator. Cells were washed in washing buffer using a Microplate Washer BIOTEK 384 instrument, leaving 20 μL of buffer per well after the final aspiration. Cells were then incubated at 37° C. with the cytoplasmic Ca^2+ indicator Fluo-4 AM at 2 μM in assay buffer containing 2.5 mM probenecid and 0.02% Pluronic F-127 for 45-60 min (cell loading). Cells were then washed 3 times in washing buffer using a Microplate Washer BIOTEK 384 instrument, leaving 30 μL of buffer in each well after the last wash. Loaded cell plates were transferred to the FLIPR Tetra instrument and calcium responses monitored as described below. A dual read-out FLIPR protocol was used, allowing for characterization of both agonist and antagonist profiles. For quality control, in each compound plate the signal was monitored by evaluating the responses to the reference standards (NKA and Substance P).
(§2) Twelve concentrations of each of the compounds A-J were evaluated for their ability to increase intracellular calcium levels with respect to the agonist reference standard (NKA or Substance P), and the pEC50 value was calculated. […] Concentration response curves of compounds were run in duplicate on two different occasions from the same stock solutions. Test solutions were prepared from 10 mM stock solutions in DMSO and 1 μL of each solution was stamped into V-bottom assay plates containing 49 μL assay buffer. The final concentration of DMSO was 0.5% in each well.
(§3) The results of the intracellular calcium mobilization by in vitro activation of recombinant hNK2Rs or hNK1Rs expressed in CHO cells as described above for the 10 peptide analogs A-J, is shown in Table 3 below. In addition, FIGS. 3A-3C are exemplary graphs showing stimulation of [Ca^2+] response in CHO cells expressing human NK2 or NK1 receptors by Compound A, Compound B, and Compound G, respectively. In FIGS. 3A-3C, data are expressed as % of the maximal response to substance P for NK1 receptors, or NKA for NK2 receptors. Each data point is the mean±SD from duplicate determinations.

[3] = target: T2, human NK1 receptor (hNK1R) (Homo sapiens, UniProt P25103); test: Intracellular calcium mobilization (Fluo-4 AM, FLIPR) in CHO cells expressing recombinant hNK1R; format: cell-based; details: for Emax: CHO, calcium response, CHO cells, full or partial agonists, read-out: maximal response at hNK1R compared to Substance P; for EC50: calcium mobilization, CHO-hNK1 cells, agonist potency, read-out: hNK1R pEC50 (converted)
T2 construct: expressed in transfected cells; host or cells: CHO (CHO-hNK1)
T2 sequence (P25103 whole entry): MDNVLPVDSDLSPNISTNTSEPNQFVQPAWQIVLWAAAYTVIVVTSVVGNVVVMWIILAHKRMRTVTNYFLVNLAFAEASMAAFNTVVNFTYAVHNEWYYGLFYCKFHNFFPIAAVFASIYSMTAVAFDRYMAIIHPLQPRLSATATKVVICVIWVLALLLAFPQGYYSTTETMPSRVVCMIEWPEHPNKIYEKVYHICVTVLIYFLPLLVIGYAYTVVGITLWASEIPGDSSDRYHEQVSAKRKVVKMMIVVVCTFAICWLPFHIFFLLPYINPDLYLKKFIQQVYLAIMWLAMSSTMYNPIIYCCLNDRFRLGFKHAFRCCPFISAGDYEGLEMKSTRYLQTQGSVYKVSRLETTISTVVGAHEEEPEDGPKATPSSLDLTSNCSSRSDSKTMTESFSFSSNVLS
Procedure: as §1, §2, §3

[4] = tested at concentrations up to 10 μM

SMILES | Aqueous solubility [1] [mg/mL] | solubility [1] [µg/mL] | EC50 [2] [nM] | Emax [3] [%] | EC50 [3] [nM] | selectivity for activation of hNK2Rs vs hNK1Rs [2] | Emax ([2]; calcium response, CHO cells, full agonists, read-out: maximal response at hNK2R compared to Neurokinin A) [%] | calcium response at hNK2R [2, 4] | calcium response at hNK1R [3, 4]
CCCC[C@H](NC(=O)[C@H](CC(C)C)N1CC[C@@H](NC(=O)[C@@H](NC(=O)[C@H](Cc2ccccc2)NC(=O)[C@H](CO)NC(=O)[C@@H](N)CC(=O)O)C(C)C)C1=O)C(N)=O [Compound B, Asp-Ser-Phe-Val-gc-Nle-NH2] | <0.1 | < 100 | 8.51 | ≥ 73 | 1780 | – | – | – | –
CSCC[C@H](NC(=O)[C@H](CC(C)C)N1CC[C@@H](NC(=O)[C@@H](NC(=O)[C@H](Cc2ccccc2)NC(=O)[C@H](CCCCN)NC(=O)[C@@H](N)CC(=O)O)C(C)C)C1=O)C(N)=O [Compound C, Asp-Lys-Phe-Val-gc-Met-NH2] | – | 5000 (≈ 5.99 mM) | 0.427 | – | 53.7 | – | – | – | –
CSCC[C@H](NC(=O)[C@H](CC(C)C)NC(=O)CCNC(=O)[C@@H](NC(=O)[C@H](Cc1ccccc1)NC(=O)[C@H](CO)NC(=O)[C@H](CC(=O)O)NC(=O)[C@@H](N)CCCCN)C(C)C)C(N)=O [I, Lys-Asp-Ser-Phe-Val-(β-Ala)-Leu-Met-NH2] (H-KDSFV[βAla]LM-NH2; N-terminus assumed) | – | ≥ 5000 | > 10000 | – | > 10000 | did not exhibit selectivity for hNK2Rs; also recorded: do not exhibit selectivity for hNK2Rs | – | did not elicit a significant calcium response; also recorded: do not elicit a significant calcium response | did not elicit a significant calcium response; also recorded: do not elicit a significant calcium response
CSCC[C@H](NC(=O)[C@H](CC(C)C)N1CC[C@@H](NC(=O)[C@@H](NC(=O)[C@H](Cc2ccccc2)NC(=O)[C@H](CO)NC(=O)[C@@H](N)CC(=O)O)C(C)C)C1=O)C(N)=O [Compound A, Asp-Ser-Phe-Val-gc-Met-NH2] | <0.1 | < 100 | 0.676 | ≥ 85 | 490 | > 700 fold | – | – | –

Second part, led by results:

Aqueous solubility [1] [mg/mL] | solubility [1] [µg/mL] | EC50 [2] [nM] | Emax [3] [%] | EC50 [3] [nM] | selectivity for activation of hNK2Rs vs hNK1Rs [2] | Emax ([2]; calcium response, CHO cells, full agonists, read-out: maximal response at hNK2R compared to Neurokinin A) [%] | SMILES | calcium response at hNK2R [2, 4] | calcium response at hNK1R [3, 4]
– | 5000 (≈ 5.54 mM) | 7.76 | ≥ 73 | 1620 | – | – | CCCC[C@H](NC(=O)[C@H](CC(C)C)N1CC[C@@H](NC(=O)[C@@H](NC(=O)[C@H](Cc2ccccc2)NC(=O)[C@H](CO)NC(=O)[C@H](CC(=O)O)NC(=O)[C@@H](N)CCCCN)C(C)C)C1=O)C(N)=O [Compound G, Lys-Asp-Ser-Phe-Val-gc-Nle-NH2] | – | –
– | 5000 (≈ 5.92 mM) | 2.51 | – | 234 | – | – | CCCC[C@H](NC(=O)[C@H](CC(C)C)N1CC[C@@H](NC(=O)[C@@H](NC(=O)[C@H](Cc2ccccc2)NC(=O)[C@H](CCCNC(=N)N)NC(=O)[C@@H](N)CC(=O)O)C(C)C)C1=O)C(N)=O [Compound F, Asp-Arg-Phe-Val-gc-Nle-NH2] | – | –
<0.1 | < 100 | 13.2 | ≥ 85 | 302 | > 20 fold | ≥ 85 | CCCC[C@H](NC(=O)[C@H](CC(C)C)NC(=O)CCNC(=O)[C@@H](NC(=O)[C@H](Cc1ccccc1)NC(=O)[C@H](CO)NC(=O)[C@H](CC(=O)O)NC(=O)[C@@H](N)CCCCN)C(C)C)C(N)=O [Compound J, Lys-Asp-Ser-Phe-Val-(β-Ala)-Leu-Nle-NH2] (H-KDSFV[βAla]L[Nle]-NH2; N-terminus assumed) | – | –
